From ChEMBL document CHEMBL4396887, “Five-Membered N-Heterocyclic Scaffolds as Novel Amino Bioisosteres at γ-Aminobutyric Acid (GABA) Type A Receptors and GABA Transporters” (J Med Chem, 2019)
Calls of active or inactive are those of the source. No cut-off for these calls is given here.

How the values were obtained:
Type in all cases: cell-based
[1] = molecular target: T1, Sodium- and chloride-dependent betaine transporter (Homo sapiens) (UniProt P48065); test: Inhibition of human BGT1 expressed in Flp-In CHO cells assessed as reduction in [3H]GABA uptake at 100 uM incubated for 3 mins by liquid scintillation counting method relative to control
T1 sequence (whole entry): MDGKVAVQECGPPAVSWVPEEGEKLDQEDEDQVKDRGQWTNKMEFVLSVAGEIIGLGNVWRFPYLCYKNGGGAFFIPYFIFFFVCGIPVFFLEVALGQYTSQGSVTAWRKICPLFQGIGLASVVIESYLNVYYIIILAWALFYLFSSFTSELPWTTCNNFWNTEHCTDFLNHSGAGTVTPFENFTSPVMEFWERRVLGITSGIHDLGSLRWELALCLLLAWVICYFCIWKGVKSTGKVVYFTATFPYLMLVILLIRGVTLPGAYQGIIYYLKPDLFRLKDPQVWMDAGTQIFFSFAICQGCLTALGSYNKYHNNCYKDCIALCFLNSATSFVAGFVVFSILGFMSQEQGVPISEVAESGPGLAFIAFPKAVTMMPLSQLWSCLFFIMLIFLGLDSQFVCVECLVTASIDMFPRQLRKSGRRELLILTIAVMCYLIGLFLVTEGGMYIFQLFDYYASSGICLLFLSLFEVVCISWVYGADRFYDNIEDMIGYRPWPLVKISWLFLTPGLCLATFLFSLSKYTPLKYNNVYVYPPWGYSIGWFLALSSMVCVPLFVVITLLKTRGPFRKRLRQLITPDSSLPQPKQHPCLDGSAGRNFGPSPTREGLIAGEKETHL

[2] = molecular target: T2, Sodium- and chloride-dependent GABA transporter 3 (Homo sapiens) (UniProt P48066); test: Inhibition of human GAT3 expressed in Flp-In CHO cells assessed as reduction in [3H]GABA uptake at 100 uM incubated for 3 mins by liquid scintillation counting method relative to control
T2 sequence (whole entry): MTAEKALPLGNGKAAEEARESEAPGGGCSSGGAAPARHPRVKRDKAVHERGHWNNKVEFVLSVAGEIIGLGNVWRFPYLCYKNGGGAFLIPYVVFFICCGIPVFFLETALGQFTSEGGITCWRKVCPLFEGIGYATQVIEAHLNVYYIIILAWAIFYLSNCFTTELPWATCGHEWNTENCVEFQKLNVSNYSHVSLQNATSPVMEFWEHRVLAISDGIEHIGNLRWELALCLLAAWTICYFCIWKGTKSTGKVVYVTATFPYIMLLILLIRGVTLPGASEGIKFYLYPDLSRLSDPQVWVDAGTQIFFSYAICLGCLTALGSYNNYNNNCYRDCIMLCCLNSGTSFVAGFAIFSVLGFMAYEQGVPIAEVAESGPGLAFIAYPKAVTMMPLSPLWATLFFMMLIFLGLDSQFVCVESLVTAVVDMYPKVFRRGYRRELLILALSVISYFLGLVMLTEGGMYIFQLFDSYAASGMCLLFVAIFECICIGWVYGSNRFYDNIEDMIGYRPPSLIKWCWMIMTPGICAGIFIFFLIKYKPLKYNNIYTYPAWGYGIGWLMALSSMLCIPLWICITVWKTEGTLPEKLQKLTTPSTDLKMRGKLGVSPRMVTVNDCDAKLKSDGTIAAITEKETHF

[3] = molecular target: T3, Sodium- and chloride-dependent betaine transporter (Homo sapiens, UniProt P48065); test: Inhibition of human BGT1 expressed in Flp-In CHO cells assessed as reduction in [3H]GABA uptake incubated for 3 mins by liquid scintillation counting method
T3 sequence (P48065 whole entry): T1 sequence (whole entry)

[4] = molecular target: Sodium- and chloride-dependent GABA transporter 1 (Homo sapiens, UniProt P30531); test: Inhibition of human GAT1 expressed in Flp-In CHO cells assessed as reduction in [3H]GABA uptake at 100 uM incubated for 3 mins by liquid scintillation counting method relative to control
Sequence of Sodium- and chloride-dependent GABA transporter 1 (P30531 whole entry, looked up): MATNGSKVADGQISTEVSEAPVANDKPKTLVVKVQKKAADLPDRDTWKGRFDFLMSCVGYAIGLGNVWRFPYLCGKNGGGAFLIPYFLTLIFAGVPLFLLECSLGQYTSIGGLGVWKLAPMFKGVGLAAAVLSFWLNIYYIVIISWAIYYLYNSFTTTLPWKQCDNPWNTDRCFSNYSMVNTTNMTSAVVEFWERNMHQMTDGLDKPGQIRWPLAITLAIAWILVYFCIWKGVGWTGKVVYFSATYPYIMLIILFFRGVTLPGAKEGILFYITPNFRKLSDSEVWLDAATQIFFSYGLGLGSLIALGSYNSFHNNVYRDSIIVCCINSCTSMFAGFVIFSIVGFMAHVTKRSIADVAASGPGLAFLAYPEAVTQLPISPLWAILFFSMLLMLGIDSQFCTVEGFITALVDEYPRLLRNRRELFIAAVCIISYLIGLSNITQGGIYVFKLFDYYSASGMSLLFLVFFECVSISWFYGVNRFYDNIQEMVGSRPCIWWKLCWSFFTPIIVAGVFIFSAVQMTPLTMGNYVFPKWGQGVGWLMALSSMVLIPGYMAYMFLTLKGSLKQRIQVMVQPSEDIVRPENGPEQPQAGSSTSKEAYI

[5] = molecular target: Gamma-aminobutyric acid receptor subunit rho-1 (Homo sapiens, UniProt P24046); test: Agonist activity at recombinant human GABA-A rho-1 receptor transiently expressed in human tsA201 cells incubated for 30 mins and measured up to 90 secs by FMP dye based FLIPR membrane potential blue assay
Sequence of Gamma-aminobutyric acid receptor subunit rho-1 (P24046 whole entry): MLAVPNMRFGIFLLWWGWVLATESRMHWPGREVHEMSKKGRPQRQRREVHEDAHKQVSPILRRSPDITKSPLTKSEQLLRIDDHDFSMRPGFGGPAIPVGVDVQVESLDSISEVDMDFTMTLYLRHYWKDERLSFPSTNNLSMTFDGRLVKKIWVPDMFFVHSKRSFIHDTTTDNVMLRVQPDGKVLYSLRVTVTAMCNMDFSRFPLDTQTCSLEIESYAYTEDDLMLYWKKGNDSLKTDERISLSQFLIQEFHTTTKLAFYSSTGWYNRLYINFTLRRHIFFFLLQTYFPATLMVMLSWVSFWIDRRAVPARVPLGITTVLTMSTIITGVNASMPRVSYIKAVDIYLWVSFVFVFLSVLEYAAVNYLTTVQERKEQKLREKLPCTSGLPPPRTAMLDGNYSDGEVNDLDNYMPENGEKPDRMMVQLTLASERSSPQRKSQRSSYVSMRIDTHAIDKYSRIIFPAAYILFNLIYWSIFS

[6] = organism: Homo sapiens; test: Agonist activity at recombinant human GABA-A alpha3beta2gamma2S receptor transiently expressed in human tsA201 cells assessed as GABA-induced maximum response incubated for 30 mins and measured up to 90 secs by FMP dye based FLIPR membrane potential blue assay relative to GABA
[7] = molecular target: Gamma-aminobutyric acid receptor subunit alpha-5/beta-2/gamma-2 (Homo sapiens) (UniProt P47870+P18507+P31644); test: Agonist activity at recombinant human GABA-A alpha5beta2gamma2S receptor transiently expressed in human tsA201 cells assessed as GABA-induced maximum response incubated for 30 mins and measured up to 90 secs by FMP dye based FLIPR membrane potential blue assay relative to GABA
[8] = molecular target: T4, Sodium- and chloride-dependent GABA transporter 2 (Homo sapiens, UniProt Q9NSD5); test: Inhibition of human GAT2 expressed in Flp-In CHO cells assessed as reduction in [3H]GABA uptake incubated for 3 mins by liquid scintillation counting method
T4 sequence (Q9NSD5 whole entry): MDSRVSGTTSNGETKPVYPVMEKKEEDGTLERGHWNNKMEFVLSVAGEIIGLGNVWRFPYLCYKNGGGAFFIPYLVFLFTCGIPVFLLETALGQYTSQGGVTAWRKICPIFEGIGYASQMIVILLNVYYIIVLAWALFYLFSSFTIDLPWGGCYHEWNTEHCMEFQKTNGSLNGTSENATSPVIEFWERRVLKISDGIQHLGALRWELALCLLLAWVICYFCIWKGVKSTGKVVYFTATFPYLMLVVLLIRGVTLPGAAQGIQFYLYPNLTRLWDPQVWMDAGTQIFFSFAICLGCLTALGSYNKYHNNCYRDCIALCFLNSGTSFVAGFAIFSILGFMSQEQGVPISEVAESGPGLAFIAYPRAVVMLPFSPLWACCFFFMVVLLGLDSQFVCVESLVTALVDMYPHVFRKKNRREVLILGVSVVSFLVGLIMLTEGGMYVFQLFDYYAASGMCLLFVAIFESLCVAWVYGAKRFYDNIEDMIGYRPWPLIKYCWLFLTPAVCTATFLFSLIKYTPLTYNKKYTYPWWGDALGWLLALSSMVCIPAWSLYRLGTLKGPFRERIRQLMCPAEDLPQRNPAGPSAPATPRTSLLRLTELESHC

Compound	inhibition [1]	inhibition [2]	IC50 ([3]; read-out: IC50)	inhibition [4]	EC50 ([5]; read-out: EC50)	Rmax [6]	Rmax [7]	IC50 [8]	IC50 ([3]; read-out: pIC50 (converted))	EC50 [5]	pEC50 [5]
NC1=NC(CC(=O)O)CS1 (stereo not given)	> 30%	> 30%	47.4 µM	> 30%	6.5 µM	95%	98%	79.1 µM	–	–	–
CC(C(=O)O)C1CSC(N)=N1 (stereo in doubt; l-10b)	–	–	> 100 µM	–	1.2 µM	–	–	> 100 µM	–	–	–
C[C@@H](C(=O)O)[C@@H]1CSC(N)=N1 (relative stereo)	> 30%	> 30%	> 100 µM	> 30%	1.6 µM	19%	81%	> 100 µM	–	–	–
NC1=NC(CC(=O)O)CN1 (stereo not given)	> 30%	> 30%	3 µM	> 30%	3.8 µM	105%	90%	132 µM	–	–	–
O=C(O)CC1CNC=N1 (stereo not given)	> 30%	> 30%	7.3 µM	> 30%	2.8 µM	91%	88%	2.9 µM	–	–	–
O=C(O)C[C@@H]1CCNC1	> 30%	> 30%	5 µM	> 30%	–	inactive	86%	16 µM	3.98 µM	Not Active	inactive
C[C@H]1SC(N)=N[C@@H]1CC(=O)O (relative stereo)	> 30%	> 30%	> 100 µM	> 30%	–	inactive	90%	> 100 µM	–	Not Active	inactive
C[C@@H]1SC(N)=N[C@@H]1CC(=O)O (relative stereo)	> 30%	> 30%	> 100 µM	> 30%	–	76%	92%	> 100 µM	–	–	–
O=C(O)C[C@H]1CCNC1	> 30%	> 30%	9.9 µM	> 30%	8.4 µM	102%	99%	7.3 µM	7.94 µM	–	–
C[C@@H](C(=O)O)[C@H]1CSC(N)=N1 (relative stereo)	> 30%	> 30%	> 100 µM	> 30%	–	96%	94%	> 100 µM	–	–	–
CC(C(=O)O)C1CSC(N)=N1 (stereo in doubt; l-10a)	–	–	> 100 µM	–	7.4 µM	–	–	> 100 µM	–	–	–
